Common to all, as to test: Kinase panel (mobility shift)
What all share (assay type): biochemical

One test has as its target T1, EPH-B2 (Homo sapiens, UniProt P29323).
T1 sequence (P29323 19-1055): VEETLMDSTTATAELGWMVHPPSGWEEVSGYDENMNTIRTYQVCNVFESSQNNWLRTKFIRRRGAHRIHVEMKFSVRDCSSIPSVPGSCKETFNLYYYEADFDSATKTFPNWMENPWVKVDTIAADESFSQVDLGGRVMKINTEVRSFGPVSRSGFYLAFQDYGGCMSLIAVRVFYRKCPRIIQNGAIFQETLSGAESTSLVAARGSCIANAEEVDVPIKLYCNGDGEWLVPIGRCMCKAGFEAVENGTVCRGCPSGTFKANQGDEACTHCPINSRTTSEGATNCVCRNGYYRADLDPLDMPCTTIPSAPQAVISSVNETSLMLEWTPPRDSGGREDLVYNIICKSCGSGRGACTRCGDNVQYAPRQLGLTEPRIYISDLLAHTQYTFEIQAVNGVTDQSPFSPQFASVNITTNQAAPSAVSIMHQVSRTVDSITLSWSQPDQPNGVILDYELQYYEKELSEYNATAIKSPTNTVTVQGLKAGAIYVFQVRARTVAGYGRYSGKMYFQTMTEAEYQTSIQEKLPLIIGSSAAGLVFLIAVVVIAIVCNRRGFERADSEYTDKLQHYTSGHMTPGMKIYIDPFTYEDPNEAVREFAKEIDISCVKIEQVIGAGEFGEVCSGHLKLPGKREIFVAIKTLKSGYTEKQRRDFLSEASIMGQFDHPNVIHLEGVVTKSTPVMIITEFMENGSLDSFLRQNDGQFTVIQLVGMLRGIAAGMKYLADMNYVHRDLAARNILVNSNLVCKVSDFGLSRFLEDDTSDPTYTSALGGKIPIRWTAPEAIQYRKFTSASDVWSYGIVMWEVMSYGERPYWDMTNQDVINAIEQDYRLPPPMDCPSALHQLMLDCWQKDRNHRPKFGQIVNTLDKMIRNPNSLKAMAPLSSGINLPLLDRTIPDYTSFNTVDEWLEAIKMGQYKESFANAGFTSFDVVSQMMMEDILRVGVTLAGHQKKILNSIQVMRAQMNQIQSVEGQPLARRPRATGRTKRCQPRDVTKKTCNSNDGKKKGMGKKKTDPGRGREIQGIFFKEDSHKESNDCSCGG
The note with it: at 5 um. On the procedure: (§1) The disclosed compounds were tested for activity against a panel of 299 kinases. The target enzyme was incubated with fluorescently labeled substrate and test compounds in a standardized reaction mixture in 384 well plates. Upon termination of the reaction, samples were introduced onto microfluidic chips. The samples migrated through channels in the chips and product and substrate were separated based on the difference in their charge (electrophoretic mobility shift). Enzyme activity was measured by direct comparison of the fluorescence in the product and substrate peaks. […] In the tables A=95% or greater at 5 um, B=90%-94% at 5 um, and C=80%-89% at 5 um. [note to draft: we included category D for 50-79 and category E is less than 50%. Feel free to remove if not needed)

Another test addresses T2, MER (Homo sapiens, UniProt Q12866).
T2 sequence (Q12866 21-999): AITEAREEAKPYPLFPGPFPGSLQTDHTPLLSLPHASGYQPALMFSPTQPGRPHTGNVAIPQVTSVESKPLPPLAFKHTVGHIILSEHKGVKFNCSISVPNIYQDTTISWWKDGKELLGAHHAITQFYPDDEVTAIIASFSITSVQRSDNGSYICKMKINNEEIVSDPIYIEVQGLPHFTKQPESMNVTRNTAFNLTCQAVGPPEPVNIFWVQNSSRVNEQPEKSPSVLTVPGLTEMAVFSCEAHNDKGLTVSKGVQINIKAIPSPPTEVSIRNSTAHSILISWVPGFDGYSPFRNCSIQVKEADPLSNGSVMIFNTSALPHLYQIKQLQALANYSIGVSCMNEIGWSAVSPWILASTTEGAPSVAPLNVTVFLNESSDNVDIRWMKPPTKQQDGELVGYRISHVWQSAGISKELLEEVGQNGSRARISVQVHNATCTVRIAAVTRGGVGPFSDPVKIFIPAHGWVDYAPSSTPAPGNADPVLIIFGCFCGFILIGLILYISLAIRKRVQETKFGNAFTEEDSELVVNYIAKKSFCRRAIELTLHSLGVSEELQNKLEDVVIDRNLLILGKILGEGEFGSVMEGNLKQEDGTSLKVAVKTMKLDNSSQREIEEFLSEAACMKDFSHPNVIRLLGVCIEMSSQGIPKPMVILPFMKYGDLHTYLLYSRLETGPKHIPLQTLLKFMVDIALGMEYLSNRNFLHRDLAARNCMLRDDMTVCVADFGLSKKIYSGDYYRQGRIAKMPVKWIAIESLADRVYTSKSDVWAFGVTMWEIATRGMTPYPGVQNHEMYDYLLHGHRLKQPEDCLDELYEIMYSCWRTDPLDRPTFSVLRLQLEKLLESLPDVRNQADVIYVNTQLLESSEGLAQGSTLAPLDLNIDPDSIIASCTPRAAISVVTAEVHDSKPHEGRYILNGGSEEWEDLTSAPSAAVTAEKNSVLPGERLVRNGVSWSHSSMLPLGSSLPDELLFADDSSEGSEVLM
The procedure:
as §1

The next test addresses TRKB (Homo sapiens, UniProt Q16620). The procedure: as §1

Where only a bound is given, the exact number is not on record here.

Chain of TRKB (Q16620 32-822, species assumed): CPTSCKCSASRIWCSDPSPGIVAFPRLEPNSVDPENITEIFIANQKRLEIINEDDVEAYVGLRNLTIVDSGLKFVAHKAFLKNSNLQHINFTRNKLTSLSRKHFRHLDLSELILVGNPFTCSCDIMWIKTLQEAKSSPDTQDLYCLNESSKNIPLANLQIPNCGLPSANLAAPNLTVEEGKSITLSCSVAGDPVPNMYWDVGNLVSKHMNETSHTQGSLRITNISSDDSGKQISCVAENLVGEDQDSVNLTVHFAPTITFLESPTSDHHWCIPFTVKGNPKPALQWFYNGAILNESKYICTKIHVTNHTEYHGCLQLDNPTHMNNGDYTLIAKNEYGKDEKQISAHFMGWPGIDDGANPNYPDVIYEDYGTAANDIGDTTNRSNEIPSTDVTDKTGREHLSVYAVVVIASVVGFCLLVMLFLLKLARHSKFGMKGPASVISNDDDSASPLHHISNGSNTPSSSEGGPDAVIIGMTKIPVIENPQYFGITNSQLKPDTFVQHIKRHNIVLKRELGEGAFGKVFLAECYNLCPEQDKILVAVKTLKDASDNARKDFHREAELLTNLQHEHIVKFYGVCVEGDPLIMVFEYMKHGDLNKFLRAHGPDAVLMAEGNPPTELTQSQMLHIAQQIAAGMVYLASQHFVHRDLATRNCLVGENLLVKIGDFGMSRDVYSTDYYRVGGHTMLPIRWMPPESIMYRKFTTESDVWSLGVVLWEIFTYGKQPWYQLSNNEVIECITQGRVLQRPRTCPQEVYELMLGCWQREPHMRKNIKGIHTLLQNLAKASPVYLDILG

`CSc1nc(C(=O)Nc2ccc(Oc3ccnc(C(=O)NC4CNC4)c3)c(F)c2)c(-c2ccc(F)s2)o1` [Compound 27]: at EPH-B2, the “inhibition of kinase activity, EPH-B2” value is “E (category E is less than 50%)”. For the same compound, the inhibition at 5 µM on MER and on TRKB was under 50% throughout.
In the case of `CSc1nc(C(=O)Nc2ccc(Oc3ccnc(C(=O)NC4COC4)c3)c(F)c2)c(-c2ccc(F)s2)o1` [Compound 28], the “inhibition of kinase activity, EPH-B2” value at EPH-B2 is “E (category E is less than 50%)”. Further, the inhibition at 5 µM at MER and at TRKB was under 50% throughout.
Turning to `CNC(=O)c1cc(Oc2ccc(NC(=O)c3nc(SC(C)C)oc3-c3ccc(F)cc3)cc2F)ccn1` [Compound 34], the “inhibition of kinase activity, EPH-B2” value at EPH-B2 is given as “C (C=80%-89% at 5 um)”. The figures for the inhibition at 5 µM on MER and at TRKB were 90 to 94% and 50 to 79%, respectively.
On to `[2H]C([2H])([2H])NC(=O)c1cc(Oc2ccc(NC(=O)c3nc(SC)oc3-c3ccc(F)c(F)c3)cc2F)ccn1` [Compound 33], for which the “inhibition of kinase activity, EPH-B2” value at EPH-B2 is given as “E (category E is less than 50%)”. Moreover, the inhibition at 5 µM at MER and on TRKB was under 50% each time.
Consider `CNC(=O)c1cc(Oc2ccc(NC(=O)c3nc(OC)oc3-c3ccc(F)cc3)cc2F)ccn1` [Compound 15], for which the “inhibition of kinase activity, EPH-B2” value on EPH-B2 is given as “D (category D for 50-79)”. Also, the inhibition at 5 µM at MER and on TRKB was 50 to 79% throughout.
In the case of `CNC(=O)c1cc(Oc2ccc(NC(=O)c3nc(NC)sc3-c3ccc(F)cc3C)cc2F)ccn1` [Compound 23], the “inhibition of kinase activity, EPH-B2” value at EPH-B2 is “D (category D for 50-79)”. Further, the inhibition at 5 µM on MER was in the range of 50 to 79%; at TRKB, 80 to 89%.
For `CNC(=O)c1cc(Oc2ccc(NC(=O)c3nc(SC)oc3-c3ccc(F)cc3Cl)cc2)ccn1` [Compound 3], at EPH-B2, the “inhibition of kinase activity, EPH-B2” value is on record as “E (category E is less than 50%)”. In addition, the inhibition at 5 µM at MER was in the range of 90 to 94%; at TRKB it was 80 to 89%.
On the same counts, the results for `CSc1nc(C(=O)Nc2ccc(Oc3ccnc(C(=O)NC4COC4)c3)c(F)c2)c(-c2ccc(F)c(F)c2)o1` [Compound 37] are “E (category E is less than 50%)”, under 50% and under 50%.
In the case of `CSc1nc(C(=O)Nc2ccc(Oc3ccnc(C(=O)NC4CNC4)c3)c(F)c2)c(-c2ccc(F)cc2)o1` [Compound 29], on EPH-B2, the “inhibition of kinase activity, EPH-B2” value is recorded as “E (category E is less than 50%)”. Also, the values for the inhibition at 5 µM at MER and at TRKB were 50 to 79% and under 50%, respectively.
Regarding `CSc1nc(C(=O)Nc2ccc(Oc3ccnc(-c4cnn(C)c4)c3)c(F)c2)c(-c2ccc(F)cc2)o1` [Compound 11], at EPH-B2, the “inhibition of kinase activity, EPH-B2” value was “B (B=90%-94% at 5 um)”. Further, the inhibition at 5 µM lay within 90 to 94% at MER and 50 to 79% at TRKB.
With `CNC(=O)c1cc(Oc2ccc(NC(=O)c3nc(OC)oc3-c3ccc(F)s3)cc2F)ccn1` [Compound 25], the “inhibition of kinase activity, EPH-B2” value on EPH-B2 is on record as “E (category E is less than 50%)”. The inhibition at 5 µM at MER and on TRKB was under 50% throughout.
As to `CNC(=O)c1cc(Oc2ccc(NC(=O)c3nc(NC)oc3-c3ccc(F)s3)cc2F)ccn1` [Compound 17], on EPH-B2, the “inhibition of kinase activity, EPH-B2” value is recorded as “E (category E is less than 50%)”. The inhibition at 5 µM is under 50% on MER and 50 to 79% on TRKB.
On to `CNC(=O)c1cc(Oc2ccc(NC(=O)c3nc(SC)oc3-c3ccc(F)cc3F)cc2F)ccn1` [Compound 12], for which the “inhibition of kinase activity, EPH-B2” value on EPH-B2 is listed as “D (category D for 50-79)”. Besides, the inhibition at 5 µM at MER and at TRKB was 80 to 89% throughout.
As for `CSc1nc(C(=O)Nc2ccc(Oc3ccnc(C(=O)NCCN(C)C)c3)c(F)c2)c(-c2ccc(F)cc2)o1` [Compound 41], at EPH-B2, the “inhibition of kinase activity, EPH-B2” value is “D (category D for 50-79)”. Further, the inhibition at 5 µM at MER is 50 to 79%; on TRKB, under 50%.
With `CNC(=O)c1cc(Oc2ccc(NC(=O)c3nc(C4CC4)oc3-c3ccc(F)cc3)cc2F)ccn1` [Compound 26], the “inhibition of kinase activity, EPH-B2” value on EPH-B2 was “C (C=80%-89% at 5 um)”. The inhibition at 5 µM on MER lay in the range of 80 to 89%; on TRKB, 50 to 79%.
Consider `CNC(=O)c1cc(Oc2ccc(NC(=O)c3nc(S(C)(=O)=O)sc3-c3ccc(F)cc3)cc2F)ccn1` [Compound 13], for which the “inhibition of kinase activity, EPH-B2” value on EPH-B2 is “E (category E is less than 50%)”. Also, the inhibition at 5 µM on MER lay in the range of 80 to 89%; on TRKB, 50 to 79%.
Regarding `CNC(=O)c1cc(Oc2ccc(NC(=O)c3nc(COC)oc3-c3ccc(F)cc3)cc2F)ccn1` [Compound 30], the “inhibition of kinase activity, EPH-B2” value on EPH-B2 is given as “B (B=90%-94% at 5 um)”. Further, the inhibition at 5 µM on MER and at TRKB was 80 to 89% each time.
`CNC(=O)c1cc(Oc2ccc(NC(=O)c3nc(SC)oc3-c3ccc(F)c(F)c3)cc2)ccn1` [Compound 4]: the “inhibition of kinase activity, EPH-B2” value on EPH-B2 is “E (category E is less than 50%)”. Further, the inhibition at 5 µM at MER was 50 to 79%; at TRKB, under 50%.
The like results for `CSc1nc(C(=O)Nc2ccc(Oc3ccnc(N)c3Cl)c(F)c2)c(-c2ccc(F)cc2)o1` [Compound 1] were, in that order, “E (category E is less than 50%)”, under 50% and under 50%.
The like results for `CNC(=O)c1cc(Oc2c(F)cc(NC(=O)c3nc(NC)sc3-c3ccc(F)cc3)cc2F)ccn1` [Compound 19] were, in that order, “D (category D for 50-79)”, 50 to 79% and under 50%.
Consider `CSc1nc(C(=O)Nc2ccc(Oc3ccnc(C(=O)NC4COC4)c3)c(F)c2)c(-c2ccc(F)cc2)o1` [Compound 31], for which the “inhibition of kinase activity, EPH-B2” value on EPH-B2 is listed as “D (category D for 50-79)”. Also, the inhibition at 5 µM at MER and at TRKB was under 50% each time.
For `CNC(=O)c1cc(Oc2ccc(NC(=O)c3nc(SC)oc3-c3ccc(OC)cc3)cc2)ccn1` [Compound 7], the “inhibition of kinase activity, EPH-B2” value at EPH-B2 is reported as “E (category E is less than 50%)”. Further, the inhibition at 5 µM on MER and on TRKB was under 50% each time.
For the compound `CSc1nc(C(=O)Nc2ccc(Oc3ccnc(C(=O)NC4CCN(C)CC4)c3)c(F)c2)c(-c2ccc(F)cc2)o1` [Compound 42], on EPH-B2, the “inhibition of kinase activity, EPH-B2” value is recorded as “E (category E is less than 50%)”. In addition, the inhibition at 5 µM on MER and on TRKB was under 50% throughout.

One may read the inhibition as how much of the control response was suppressed.

The values are drawn from US11629143B2, “HipK4 inhibitors and uses thereof” (Vibliome Therapeutics, LLC, priority 2020, dated 2023).
